# Results published in patent US20040006070A1, “Intraspinal continuous infusion of midazolam hydrochloride for the treatment of pain” (priority 2002, published 2004).
# Where a name gives a salt, the structure may show the parent alone.
# Test: Bloodwork: complete blood count, electrolytes, extended blood chemistry
# Format: in vivo, sheep
# Details: for Total Bili: ref 0.14-0.32; for K+: ref 3.9-5.4; for Phos: ref 5-7.3; for Total Prot: ref 6-7.9
# Method: Indirect blood pressure, pulse recording, pain testing (mechanical stimulus device, cold and warm water baths see description in procedure) and weight were taken on days 1, 3, 7, 15, 22, 29, 36, and 43. Venous blood samples (15 ml drawn from the jugular vein with Vacutainer brand blood collection tubes) for complete blood count, electrolytes, and extended blood chemistry were drawn on days 1, 15, and 43 (mild procedure only light hand restraint necessary).
# [1] = sheep Chicken Hawk #87, 5 mg/day, Baseline
# [2] = sheep Chicken Hawk #87, 5 mg/day, Day 1
compound,measurement,setting,value
"Cc1ncc2n1-c1ccc(Cl)cc1C(c1ccccc1F)=NC2 [Midazolam, midazolam hydrochloride]",MCH,"sheep #498, 10 mg/day, Day 43",9.3 pg
same,MCHC,"sheep #498, 10 mg/day, Day 43",30.3 g/dL
same,MCV,"sheep #498, 10 mg/day, Day 43",30.9 fL
same,Na+,"sheep #498, 10 mg/day, Day 43",148 mEq/l
same,RBC,"sheep #498, 10 mg/day, Day 43",1.003e+07 µL⁻¹
same,WBC,"sheep #498, 10 mg/day, Day 43",9700 µL⁻¹
same,Total Bili,"sheep #498, 10 mg/day, Day 43",0.1 mg/dL
same,Creatinine,"sheep #498, 10 mg/day, Day 43, ref 1-2.7",1.5 mg/dL
same,Albumin,"sheep #498, 10 mg/day, Day 43, ref 2.4-3",3.6 g/dL
same,K+,"sheep #498, 10 mg/day, Day 43",4.0 mEq/l
same,Phos,"sheep #498, 10 mg/day, Day 43",5.8 Mg/dl
same,Total Prot,"sheep #498, 10 mg/day, Day 43",6.1 g/dL
same,Platlet Count,"sheep #498, 10 mg/day, Day 43, result in words",Ade-
same,ALT,"sheep #518, 5 mg/day, Day 1",12.0 U/L
same,AST,"sheep #518, 5 mg/day, Day 1",112 U/L
same,Alk Phos,"sheep #518, 5 mg/day, Day 1",157 U/L
same,BUN,"sheep #518, 5 mg/day, Day 1",15 mg/dL
same,CPK,"sheep #518, 5 mg/day, Day 1",148 U/L
same,Cholesterol,"sheep #518, 5 mg/day, Day 1",96 mg/dL
same,Differential Count: Eosin,"sheep #518, 5 mg/day, Day 1",1%
same,Differential Count: Lymph,"sheep #518, 5 mg/day, Day 1",29%
same,Differential Count: Seg,"sheep #518, 5 mg/day, Day 1",70%
same,Gamma GT,"sheep #518, 5 mg/day, Day 1",79 U/L
same,Glucose,"sheep #518, 5 mg/day, Day 1",8.8 mg/dL
same,Hct,"sheep #518, 5 mg/day, Day 1",35.0%
same,Hgb,"sheep #518, 5 mg/day, Day 1",12.2 g/dL
same,MCH,"sheep #518, 5 mg/day, Day 1",9.6 pg
same,MCHC,"sheep #518, 5 mg/day, Day 1",31.4 G/dl
same,MCV,"sheep #518, 5 mg/day, Day 1",30.6 fL
same,Na+,"sheep #518, 5 mg/day, Day 1",154 mEq/l
same,Platlet Count,"sheep #518, 5 mg/day, Day 1",642000 µL⁻¹
same,RBC,"sheep #518, 5 mg/day, Day 1",1.144e+07 µL⁻¹
same,WBC,"sheep #518, 5 mg/day, Day 1",8400 µL⁻¹
same,Total Bili,"sheep #518, 5 mg/day, Day 1",0.2 mg/dL
same,Creatinine,"sheep #518, 5 mg/day, Day 1, ref 1-2.7",1.1 mg/dL
same,Albumin,"sheep #518, 5 mg/day, Day 1, ref 2.4-3",3.6 G/dl
same,K+,"sheep #518, 5 mg/day, Day 1",4.9 mEq/l
same,Phos,"sheep #518, 5 mg/day, Day 1",7.2 mg/dL
same,Total Prot,"sheep #518, 5 mg/day, Day 1",7.0 G/dl
same,ALT,"sheep #518, 5 mg/day, Day 3",10.0 U/L
same,AST,"sheep #518, 5 mg/day, Day 3",99 U/L
same,Alk Phos,"sheep #518, 5 mg/day, Day 3",99 U/L
same,BUN,"sheep #518, 5 mg/day, Day 3",5 mg/dL
same,CPK,"sheep #518, 5 mg/day, Day 3",834 U/L
same,Cholesterol,"sheep #518, 5 mg/day, Day 3",87 mg/dL
same,Differential Count: Atyp lym,"sheep #518, 5 mg/day, Day 3",1%
same,Differential Count: Eosin,"sheep #518, 5 mg/day, Day 3",1%
same,Differential Count: Lymph,"sheep #518, 5 mg/day, Day 3",47%
same,Differential Count: Seg,"sheep #518, 5 mg/day, Day 3",51%
same,Gamma GT,"sheep #518, 5 mg/day, Day 3",79 U/L
same,Glucose,"sheep #518, 5 mg/day, Day 3",122 mg/dL
same,Hct,"sheep #518, 5 mg/day, Day 3",33.0%
same,Hgb,"sheep #518, 5 mg/day, Day 3",11.3 g/dL
same,MCH,"sheep #518, 5 mg/day, Day 3",9.3 pg
same,MCHC,"sheep #518, 5 mg/day, Day 3",30.1 G/dl
same,MCV,"sheep #518, 5 mg/day, Day 3",30.7 fL
same,Na+,"sheep #518, 5 mg/day, Day 3",151 mEq/l
same,Platlet Count,"sheep #518, 5 mg/day, Day 3",546000 µL⁻¹
same,RBC,"sheep #518, 5 mg/day, Day 3",1.075e+07 µL⁻¹
same,WBC,"sheep #518, 5 mg/day, Day 3",6400 µL⁻¹
same,Total Bili,"sheep #518, 5 mg/day, Day 3",0.1 mg/dL
same,Creatinine,"sheep #518, 5 mg/day, Day 3, ref 1-2.7",1.4 mg/dL
same,Albumin,"sheep #518, 5 mg/day, Day 3, ref 2.4-3",3.8 G/dl
same,K+,"sheep #518, 5 mg/day, Day 3",4.4 mEq/l
same,Phos,"sheep #518, 5 mg/day, Day 3",5.7 mg/dL
same,Total Prot,"sheep #518, 5 mg/day, Day 3",6.6 G/dl
same,ALT,"sheep #518, 5 mg/day, Day 15",13.0 U/L
same,AST,"sheep #518, 5 mg/day, Day 15",74 U/L
same,Alk Phos,"sheep #518, 5 mg/day, Day 15",100 U/L
same,BUN,"sheep #518, 5 mg/day, Day 15",13 mg/dL
same,CPK,"sheep #518, 5 mg/day, Day 15",172 U/L
same,Cholesterol,"sheep #518, 5 mg/day, Day 15",83 mg/dL
same,Differential Count: Eosin,"sheep #518, 5 mg/day, Day 15",5%
same,Differential Count: Lymph,"sheep #518, 5 mg/day, Day 15",62%
same,Differential Count: Seg,"sheep #518, 5 mg/day, Day 15",33%
same,Gamma GT,"sheep #518, 5 mg/day, Day 15",90 U/L
same,Glucose,"sheep #518, 5 mg/day, Day 15",74 mg/dL
same,Hct,"sheep #518, 5 mg/day, Day 15",33.0%
same,Hgb,"sheep #518, 5 mg/day, Day 15",11.6 g/dL
same,MCH,"sheep #518, 5 mg/day, Day 15",9.6 pg
same,MCHC,"sheep #518, 5 mg/day, Day 15",31.3 G/dl
same,MCV,"sheep #518, 5 mg/day, Day 15",30.7 fL
same,Na+,"sheep #518, 5 mg/day, Day 15",151 mEq/l
same,Platlet Count,"sheep #518, 5 mg/day, Day 15",533000 µL⁻¹
same,RBC,"sheep #518, 5 mg/day, Day 15",1.208e+07 µL⁻¹
same,WBC,"sheep #518, 5 mg/day, Day 15",5300 µL⁻¹
same,Total Bili,"sheep #518, 5 mg/day, Day 15",0.1 mg/dL
same,Creatinine,"sheep #518, 5 mg/day, Day 15, ref 1-2.7",1.6 mg/dL
same,Albumin,"sheep #518, 5 mg/day, Day 15, ref 2.4-3",4.1 G/dl
same,K+,"sheep #518, 5 mg/day, Day 15",4.6 mEq/l
same,Phos,"sheep #518, 5 mg/day, Day 15",5.1 mg/dL
same,Total Prot,"sheep #518, 5 mg/day, Day 15",6.7 G/dl
same,ALT,"sheep #518, 5 mg/day, Day 43",12.0 U/L
same,AST,"sheep #518, 5 mg/day, Day 43",76 U/L
same,Alk Phos,"sheep #518, 5 mg/day, Day 43",89 U/L
same,BUN,"sheep #518, 5 mg/day, Day 43",7 mg/dL
same,CPK,"sheep #518, 5 mg/day, Day 43",787 U/L
same,Cholesterol,"sheep #518, 5 mg/day, Day 43",69 mg/dL
same,Differential Count: Atyp lym,"sheep #518, 5 mg/day, Day 43",1%
same,Differential Count: Eosin,"sheep #518, 5 mg/day, Day 43",4%
same,Differential Count: Lymph,"sheep #518, 5 mg/day, Day 43",48%
same,Differential Count: Seg,"sheep #518, 5 mg/day, Day 43",47%
same,Gamma GT,"sheep #518, 5 mg/day, Day 43",68 U/L
same,Glucose,"sheep #518, 5 mg/day, Day 43",89 mg/dL
same,Hct,"sheep #518, 5 mg/day, Day 43",44.6%
same,Hgb,"sheep #518, 5 mg/day, Day 43",13.7 g/dL
same,MCH,"sheep #518, 5 mg/day, Day 43",9.6 pg
same,MCHC,"sheep #518, 5 mg/day, Day 43",30.7 G/dl
same,MCV,"sheep #518, 5 mg/day, Day 43",31.1 fL
same,Na+,"sheep #518, 5 mg/day, Day 43",152 mEq/l
same,Platlet Count,"sheep #518, 5 mg/day, Day 43",448000 µL⁻¹
same,RBC,"sheep #518, 5 mg/day, Day 43",1.254e+07 µL⁻¹
same,WBC,"sheep #518, 5 mg/day, Day 43",4800 µL⁻¹
same,Total Bili,"sheep #518, 5 mg/day, Day 43",0.1 mg/dL
same,Creatinine,"sheep #518, 5 mg/day, Day 43, ref 1-2.7",1.7 mg/dL
same,Albumin,"sheep #518, 5 mg/day, Day 43, ref 2.4-3",3.5 G/dl
same,K+,"sheep #518, 5 mg/day, Day 43",4.6 mEq/l
same,Phos,"sheep #518, 5 mg/day, Day 43",6.4 mg/dL
same,Total Prot,"sheep #518, 5 mg/day, Day 43",6.2 G/dl
same,Differential Count: Atyp lym,[1],0%
same,Differential Count: Baso,[1],0%
same,Differential Count: Eosin,[1],2%
same,Differential Count: Lymph,[1],41%
same,Differential Count: Mono,[1],4%
same,Differential Count: Seg,[1],53%
same,Hct,[1],31.5%
same,Hgb,[1],10.8 g/dL
same,MCH,[1],11.0 pg
same,MCHC,[1],34.2 g/dL
same,MCV,[1],32.3 fL
same,Platlet Count,[1],848000 µL⁻¹
same,RBC,[1],9.77e+06 µL⁻¹
same,WBC,[1],6180 µL⁻¹
same,ALT,[2],4 U/L
same,AST,[2],63 U/L
same,Albumin,[2],3.2 g/dL
same,Alk Phos,[2],54 U/L
same,BUN,[2],14 mg/dL
same,CPK,[2],163 U/L
same,Cholesterol,[2],71 mg/dL
same,Creatinine,[2],1.3 mg/dL
same,Differential Count: Atyp lym,[2],0%
same,Differential Count: Baso,[2],0%
same,Differential Count: Eosin,[2],2%
same,Differential Count: Lymph,[2],55%
same,Differential Count: Mono,[2],7%
same,Differential Count: Seg,[2],36%
same,Gamma GT,[2],55 U/L
